Test results as given in BindingDB's records for patent US20250059156 (Sensorium Therapeutics, 2025).

Biological target: Sodium-dependent serotonin transporter (Homo sapiens, UniProt P31645)
Assay: SERT Inhibition Assay
Description: SERT inhibition was measured using a Neruotransmitter Transportation Fluorescence assay. […] Compounds were prepared by in assay buffer (20 mM HEPES, 0.1% BSA). The compounds were added to the plated cells and incubated for 30 minutes at 37° C. 25 μL of dye solution (Molecular Devices Neurotransmitter Transporter Uptake Assay Kit) was added per well and incubated for 30 minutes at 37° C. The plates were then read on a plate reader.

Chain of Sodium-dependent serotonin transporter (P31645 whole entry): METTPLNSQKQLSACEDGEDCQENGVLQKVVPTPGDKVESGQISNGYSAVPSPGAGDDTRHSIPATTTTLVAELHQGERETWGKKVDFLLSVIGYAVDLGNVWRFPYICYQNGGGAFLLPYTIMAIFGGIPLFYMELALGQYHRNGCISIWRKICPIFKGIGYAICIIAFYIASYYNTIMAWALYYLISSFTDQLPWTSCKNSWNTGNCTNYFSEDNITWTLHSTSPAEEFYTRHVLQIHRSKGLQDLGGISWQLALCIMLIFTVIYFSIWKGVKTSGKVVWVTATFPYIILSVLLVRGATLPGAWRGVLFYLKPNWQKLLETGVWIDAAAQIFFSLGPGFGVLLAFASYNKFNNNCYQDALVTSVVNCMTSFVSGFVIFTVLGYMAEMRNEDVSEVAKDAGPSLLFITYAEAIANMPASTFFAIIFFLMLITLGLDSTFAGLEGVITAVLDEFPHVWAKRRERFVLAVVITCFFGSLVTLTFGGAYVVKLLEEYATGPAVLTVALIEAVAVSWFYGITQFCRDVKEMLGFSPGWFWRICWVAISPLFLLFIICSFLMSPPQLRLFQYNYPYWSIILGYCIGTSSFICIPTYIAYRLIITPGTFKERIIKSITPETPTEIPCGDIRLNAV

Structure (SMILES) | IC50
COc1ccc([C@]23CCN(C)[C@H]2[C@H]2CCC[C@@H]3CC2=O)cc1OC [US20250059156, Compound 220] | 100 to 500 nM
COc1ccc([C@@]23CCN(C)[C@@H]2[C@@H]2CCC[C@H]3CC2=O)cc1OC [US20250059156, Compound 221] | < 50 nM
